Measured values reported in US5011854A, “Hydroxamic acid derivatives and use thereof in combatting lipoxygenase-mediated diseases” (Kyowa Hakko Kogyo Co. Ltd., priority 1987, dated 1991).

Columns and labels:
12-lipoxygenase [1] = molecular target: T1, 12-lipoxygenase (Bos taurus, UniProt F1MFA8); test: Platelet 12-lipoxygenase inhibiting activity (Test Example 2, [14C]-arachidonic acid, TLC); type: biochemical; conditions: bovine platelet-derived preparation; 20 μM [14C]-arachidonic acid; pH 7.4; 30° C., 10 min; TLC/scintillation; read-out: Inhibitory Activity IC50, 12-Lipoxygenase
T1 construct: a bovine platelet-derived preparation was used as the 12-lipoxygenase source; from tissue; host or cells: bovine platelets
T1 sequence (F1MFA8 1-663): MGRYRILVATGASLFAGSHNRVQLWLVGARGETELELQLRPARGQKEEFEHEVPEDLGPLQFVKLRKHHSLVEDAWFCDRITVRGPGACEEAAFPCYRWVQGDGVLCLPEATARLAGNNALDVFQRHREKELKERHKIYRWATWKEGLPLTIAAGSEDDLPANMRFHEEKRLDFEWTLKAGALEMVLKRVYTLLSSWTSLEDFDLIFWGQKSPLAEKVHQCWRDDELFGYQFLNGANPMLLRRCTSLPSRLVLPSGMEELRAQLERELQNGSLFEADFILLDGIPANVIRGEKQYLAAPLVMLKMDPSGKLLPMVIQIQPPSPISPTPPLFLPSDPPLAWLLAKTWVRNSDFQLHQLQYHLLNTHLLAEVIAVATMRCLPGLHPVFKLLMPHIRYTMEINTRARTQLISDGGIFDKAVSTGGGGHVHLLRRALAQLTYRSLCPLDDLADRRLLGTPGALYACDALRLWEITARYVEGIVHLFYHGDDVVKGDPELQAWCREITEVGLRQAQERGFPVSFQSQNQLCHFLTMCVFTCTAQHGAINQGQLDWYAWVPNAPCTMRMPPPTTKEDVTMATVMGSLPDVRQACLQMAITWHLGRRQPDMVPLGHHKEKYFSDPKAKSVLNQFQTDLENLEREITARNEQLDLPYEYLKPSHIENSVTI

5-lipoxygenase [2] = molecular target: T2, 5-lipoxygenase (Rattus norvegicus, UniProt P12527); test: 5-Lipoxygenase inhibiting activity (Test Example 2, [14C]-arachidonic acid, TLC); type: biochemical; conditions: RBL-1 cells as enzyme source; 27 μM [14C]-arachidonic acid; pH 7.4; 37° C., 5 min; TLC/scintillation; read-out: Inhibitory Activity IC50, 5-Lipoxygenase
T2 construct: rat basophilic leukemia cells (RBL-1, ATCC No. CRL 1378) were used as the 5-lipoxygenase source; endogenous in cells; host or cells: RBL-1 (rat basophilic leukemia, ATCC CRL 1378)
T2 sequence (P12527 1-673): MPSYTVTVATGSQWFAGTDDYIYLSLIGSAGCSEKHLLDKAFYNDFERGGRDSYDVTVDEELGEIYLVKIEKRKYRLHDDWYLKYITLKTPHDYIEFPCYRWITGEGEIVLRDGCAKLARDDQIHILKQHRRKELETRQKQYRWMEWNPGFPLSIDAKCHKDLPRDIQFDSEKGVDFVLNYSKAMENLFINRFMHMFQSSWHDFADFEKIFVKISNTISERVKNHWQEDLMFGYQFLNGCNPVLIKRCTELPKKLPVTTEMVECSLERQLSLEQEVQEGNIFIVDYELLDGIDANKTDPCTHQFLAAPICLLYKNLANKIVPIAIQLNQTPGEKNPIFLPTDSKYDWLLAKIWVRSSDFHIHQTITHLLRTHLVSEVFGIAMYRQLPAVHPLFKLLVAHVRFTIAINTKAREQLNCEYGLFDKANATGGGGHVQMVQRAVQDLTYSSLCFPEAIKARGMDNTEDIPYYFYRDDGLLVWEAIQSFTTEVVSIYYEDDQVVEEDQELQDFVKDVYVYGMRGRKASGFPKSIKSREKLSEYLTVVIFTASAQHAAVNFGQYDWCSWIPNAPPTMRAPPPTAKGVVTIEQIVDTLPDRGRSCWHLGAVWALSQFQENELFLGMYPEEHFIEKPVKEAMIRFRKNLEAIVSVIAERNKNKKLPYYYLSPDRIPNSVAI
Method: The compounds listed in Table 3 were tested for their lipoxygenase inhibiting activity by the following methods:
(a') 5-Lipoxygenase inhibiting activity
Essentially, the same method described in the above (a) was used. Thus, rat basophilic leukemia cells (RBL-1, ATCC No. CRL 1378) were used as the 5-lipoxygenase source. These cells were contacted with the test compound in 30 μl of 0.17 M Tris-hydrochloride buffer (pH 7.4) containing […] calcium chloride, 3.3 mM adenosine triphosphate and 1 mM glutathione at 37° C. for 5 minutes. Then, 25 μl of 27 μM [^14 C]-arachidonic acid was added and the enzymatic reaction was allowed to proceed at 37° C. for 5 minutes. To the reaction mixture was added 50 μl of ethyl acetate/methanol/0.2 M citric acid (30/4/1), and the whole mixture was stirred. The reaction product extracted into the ethyl acetate layer was separated by silica gel thin layer chromatography [Merck Art 5631: developing solvent; petroleum ether/ethyl ether/acetic acid (50/50/1)]. The site of the product [^14 C]-5-hydroxy-6,8,11,14-eicosatetraenoic acid was detected by autoradiography, the gel portion corresponding to the site was scraped off and assayed for ^14 C using a liquid scintillation counter, and the yield of the product was determined.

lipoxygenase = conditions: known compounds; cited from earlier work
[3] = literature; cited from earlier work
12-lipoxygenase [4] = molecular target: T1, 12-lipoxygenase; test: Platelet 12-lipoxygenase inhibiting activity (Test Example 1, HPLC determination of 12-HETE); type: biochemical; conditions: bovine platelet-derived preparation; 60 μM arachidonic acid; pH 7.4; 30° C., 10 min; HPLC of 12-HETE; read-out: Inhibitory Activity IC50, 12-Lipoxygenase
Method: (§1) The compounds listed in Table 2 were tested in vitro for their lipoxygenase inhibiting activity in the following manner: a) Leukocyte 5-lipoxygenase inhibiting activity
The method of D.H. Nugtern et al. Biochem. Biophys. Acta, 380, 299 (1975) was modified. Thus, a bovine platelet-derived preparation was used as the 12-lipoxygenase source. This enzyme preparation and the test compound were brought into contact with each other in 60 μl of 0.17 M Tris-hydrochloride buffer (pH 7.4) at 30° C. for 5 minutes, 50 μl of 60 μM arachidonic acid was then added and the enzymatic reaction was allowed to proceed at 30° C. for 10 minutes. Thereafter, 200 μl of methanol and 13-hydroxylinolic acid (internal standard) were added and, after sufficient shaking, the mixture was allowed to stand at -20° C. for 30 minutes. The supernatant was collected by centrifugation (12,000 revolutions per minute, 10 minutes). This supernatant was evaporated to dryness under a nitrogen gas stream. To the residue was added 200 μl of 75% aqueous methanol and 100 μl of the resultant solution was subjected to high performance liquid chromatography for the determination of 12-HETE (12-hydroxyeicosapetraenoic acid). 12-HETE was assayed by ultraviolet absorption monitoring at 234 nm. The yield of 12-HETE was calculated from the peak area corrected in comparison with the peak of the internal standard.

5-lipoxygenase [5] = molecular target: T2, 5-lipoxygenase; test: Leukocyte 5-lipoxygenase inhibiting activity (Test Example 1, HPLC determination of 5-HETE); type: biochemical; conditions: RBL-1 cells as enzyme source; 60 μM arachidonic acid; pH 7.4; 37° C., 5 min; HPLC of 5-HETE; read-out: Inhibitory Activity IC50, 5-Lipoxygenase
Method: as §1
The method of B.A. Jakschik et al. Biochem. Biophys. Res. Commun., 95, 103 (1980) was modified. Thus, rat basophilic leukemia cells (RBL-1, ATCC No. CRL 1378) were used as the 5-lipoxygenase source. These cells were brought into contact with the test compound in 60 μl of 0.17 M Tris-hydrochloride buffer (pH 7.4) containing […], 3.3 mM adenosine triphosphate and 1 mM glutathione at 37° C. for 5 minutes, then 50 μl of 60 μM arachidonic acid was added and the enzymatic reaction was allowed to proceed at 37° C. for 5 minutes. Thereafter, 200 μl of methanol and 13-hydroxylinolic acid (internal standard) were added. After sufficient shaking, the mixture was allowed to stand at -20° C. for 30 minutes and then centrifuged for 10 minutes (12,000 revolutions per minute) to collect the supernatant. The supernatant was evaporated to dryness under a nitrogen gas stream. To the residue was added 200 μl of 75% aqueous methanol and 100 μl of the resultant solution was subjected to high performance liquid chromatography for the determination of 5-HETE (5-hydroxyeicosatetraenoic acid). 5-HETE was assayed on the basis of the absorption at 234 nm as measured by ultraviolet absorption monitoring. The yield of 5-HETE was calculated from the peak area corrected in comparison with the peak of the internal standard. […] (b) Platelet 12-lipoxygenase inhibiting activity

Row | SMILES | IC50 (12-lipoxygenase [1]) | IC50 (5-lipoxygenase [2]) | IC50 (5-lipoxygenase [5]) | further results
1 | Cl.NC1=NN(c2cccc(C(F)(F)F)c2)CC1 [BW-755C, 3-amino-1-(3-trifluoromethylphenyl)-2-pyrazoline hydrochloride] | 8800 nM | – | – | lipoxygenase inhibiting activity (in words) (lipoxygenase): known to have lipoxygenase inhibiting activity; pharmacological activities (in words) [3]: anti-inflammatory and other activities
2 | CCCCCCCCCCCC(=O)NCCCCCN(O)C(=O)CCC(=O)OC [Compound No. 2] | – | – | 10 nM | IC50 (12-lipoxygenase [4]): 3300 nM
3 | CCCCCCCCCCCC(=O)N(O)CCCCCNCCCC(=O)OC [Compound No. 7] | – | – | 52 nM | –
4 | CC1=C(C)C(=O)C(CCCCC#CCCCC#CCO)=C(C)C1=O [AA-861, 2-(12-hydroxy-dodeca-5,10-diynyl)-3,5,6-trimethyl-1,4-benzoquinone, reference compound] | 450000 nM | 680 nM | – | lipoxygenase inhibiting activity (in words) (lipoxygenase): known to have lipoxygenase inhibiting activity; pharmacological activities (in words) [3]: bronchial contraction suppressing, anti-inflammatory, anti-myocardiac infarction and other activities
5 | CCCCCCCCCCCC(=O)N(O)CCCCCNC(=O)CC(=O)OC [Compound No. 9] | – | – | 54 nM | IC50 (12-lipoxygenase [4]): 11 nM
6 | CCCCCCCCCCCC(=O)N(O)CCCCCNC(=O)CC(=O)OCC [Compound No. 8] | – | – | 25 nM | IC50 (12-lipoxygenase [4]): 12 nM
7 | CCCCCCCCCCCC(=O)N(O)CCCCCNCCCC(=O)O [Compound No. 6] | – | – | 560 nM | –
8 | CCCCCCCCCCCC(=O)N(O)CCCNC(=O)CCC(=O)O [Compound No. 10] | – | – | 270 nM | IC50 (12-lipoxygenase [4]): 7000 nM

More lines, main results first:

Row | IC50 (12-lipoxygenase [1]) | IC50 (5-lipoxygenase [2]) | IC50 (5-lipoxygenase [5]) | SMILES | further results
9 | 35 nM | 1870 nM | – | CCCCCCCCCCCC(=O)N(O)CCCCCNC(=O)CCC(=O)O [Compound No. 12] | –
10 | 1000 nM | 470 nM | – | CCCCCCCCCCCCCCCC(=O)N(O)CCCCCNC(=O)CCC(=O)OC [compound 17] | –
11 | 14 nM | 55 nM | – | CCCCCCCCCCCC(=O)N(O)CCCCCNC(=O)CCC(=O)OC [Compound No. 13] | –
12 | 310 nM | 360 nM | – | CCC(C)CCCCCCCCCCC(=O)N(O)CCCCCNC(=O)CCC(=O)OC (stereo not shown) [compound 21] | –
13 | 33 nM | 89 nM | – | COC(=O)CCC(=O)NCCCCCN(O)C(=O)CCCCCCCCC(C)C [compound 27] | –
14 | 56 nM | 300 nM | – | COC(=O)CCC(=O)NCCCCCN(O)C(=O)CCCCCCCCCCC(C)C [compound 23] | –
15 | 32000 nM | 800 nM | – | CCCCCCCCCCCCCCCCCC(=O)N(O)CCCCCNC(=O)CCC(=O)OC [compound 15] | –
16 | 36 nM | 190 nM | – | CCCCCCCCCCCCC(=O)N(O)CCCCCNC(=O)CCC(=O)OC [compound 24] | –
17 | – | – | 12 nM | CCCCCCCCCCCC(=O)N(O)CCCNC(=O)CCC(=O)OC [Compound No. 11] | –
